# Source: PMC7032088 (Asian Journal of Pharmaceutical Sciences, 2017)
# Tested on: A549 cells
# Assay: Cell viability
# Details: 24 h, 0.0005–0.1 mg/ml
structure (smiles),measurement,value
"CC(C(=O)O)c1cccc(C(=O)c2ccccc2)c1 (stereo not shown) [Free KTP, Ketoprofen]",in vitro cytotoxicity (MTT),did not show significant cytotoxicity
